The source of these data is patent US9556236B1, “Compositions and methods for treating respiratory syncytial virus infection” (priority 2012, dated 2017).

Entries after “also recorded” stand apart in the source; their conditions may differ. Positions of bridges follow the written chain, without caps; N, C: chain ends. No end group written: not given here.

Series [1] concerns A2 RSV. The series can be described thus: RSV titers by plaque assay in HEp-2 cells in presence of peptide, A2 strain. It counts as cell-based, respiratory syncytial virus. The following applies: for inhibition of A2 infection by viral titers: 24-96 h after infection. As to the method:
(§1) Growth and titration of the respiratory syncytial virus (RSV) strains A2, RG RSV (green-fluorescent tag), and rA2 were performed as previously described in the literature.^17,18 RSV was propagated in HEp-2 cells containing 0.1 PFU/cell in T-175 flasks supplied with 7 ml of 2% FBS, OptiMEM (virus yield 10^6-10^7 pfu/ml). Infection was allowed for 2 h. (at 37° C., 5% CO2) and then replaced with fresh media. The infection was allowed to progress until CPE (80-90%), typically happening after 3 days of incubation. Viral suspension was collected and combined with scrapped cells in to a vial and centrifuged at 3200 rpm for 10 min at 4° C. The culture supernatant was collected and mixed with 0.1 volumes of sterile magnesium sulfate (1M). Last, viral supernatant was stored in cryovials and stored in liquid nitrogen tank.^18,19 Viral titers were measured using carboxymethylcellulose plaque assay on HEp-2 cells grown to 80-90% confluency at 5% FBS/DMEM in a 24-well plate (70K cells per well).^17,18,19 Virus particles were visible and quantitated after immunochemistry treatment of the cells with primary anti-RSV F mouse monoclonal [RSV3216 (B016)] (1:1000 dilution) and secondary antibody against primary with HRP conjugate.
(§2) The effect of inhibitory peptides (HR2-A, HR2-B, HR2-C, HR2-D, HR2-E, HR2-S, HR2-D0, HR2-D1, HR2-D2, HR2-D3, HR2-D4) on RG RSV infection given by prophylactic method was visualized by inverted fluorescence microscopy (Olympus IX371) and quantitated by flow cytometry. For plaque assays, 50K HEp2 cells/well were seeded in 24-well plates and infected with RG RSV (0.1-1 MOI) in the presence of peptides for 1 h. The viral supernatant was removed and a second dose of peptides in methylcellulose/5% FBS was overlaid onto the cells. Plaques were visualized and quantified (3-5 days pi). Cellular uptake was characterized using confocal microscopy and flow cytometry. For confocal imaging, 50K cells (Vero, A549) were placed on a […] and grown overnight before treatment with MPs (5 μM peptide conc./dish) and incubated for 1 h at 37° C. Cells were placed in a live-cell environmental chamber at 37° C. with 5% CO2 and imaged using spinning-disk confocal microscopy (Olympus IX81 confocal microscope). Uptake was quantified by flow cytometry (BD FacsAria analyzer/sorter). Samples for flow cytometry were prepared using 50K cells/well seeded in 24-well plates and grown in DMEM plus 10% FBS and incubated with peptides at a concentration of 5 μM peptide/well for 30 min at 37° C. […] Final cell pellet was suspended in 400 μl of 1×PBS and analyzed for green and/or red content.
Following the same methodology as for flow, two doses of peptides were used, and virus inoculation was 0.2 MOI. Titers were quantified 24 to 96 h after infection (pi).

A short description of series [2]: Hydrodynamic diameter by dynamic light scattering. It counts as physicochemical. Particulars: DLS, in water. The protocol:
The hydrodynamic radius of functionalized micelles (FMDs), micelle-peptide complexes (MPs), FMP, Cy5-amine-coated micelles and Cy5-HR2-D in water was measured using dynamic light scattering and zeta potential (DLS, Microtrac). Aliquots for DLS were prepared by diluting the stock samples 1:5, passing them through a 0.2 μm syringe-filter and sonicating for 10 min to disrupt aggregation.

Series [3] deals with RG RSV. Description: Therapeutic antiviral activity of FMDs in A549 cells infected with RG RSV. Particulars: administered 24 h pi, RG RSV low MOI. It counts as cell-based, respiratory syncytial virus. The protocol:
25K A549 cells grown in 48-well plates and supplied with DMEM (no serum) were infected with RSV at a 0.1 MOI for 1 h. After washing the viral supernatant, cells were incubated in DMEM (5% FBS, 1% P/S) allowing progression of infection for different time periods (4 and 24 h), however, only 24 h is shown here. At these two time points, cells were treated with a dose of peptides or micelle-peptides containing 5 μM peptide/well. Infection was followed for a period of 48 h through microscopy and quantified through Image J statistical analysis software.
For testing the efficiency of FMDs, cytotoxicity was measured in A549 cells at different HR2-D peptide concentrations using FM2D and FM3D, respectively (FIG. 10A). EM2 and EM3 represent empty micelle control. A549 cells were infected according to therapeutic conditions, and FMD (6 μM FM2D, 5 μM FM3D) were administered 24 h pi. The images were visualized 48 h pi (FIG. 10B) and the inhibitory efficiency quantified using flow cytometry (FIGS. 10C and 10D). […] FM3D had good inhibitory activity by suppressing the expression of GFP by 65% as compared to the control.

In series [4] the test system is RG RSV. Description: Free peptide and Cy5-labeled MPs, prophylactic model in Vero cells at low and high MOI, flow cytometry. It counts as cell-based, respiratory syncytial virus. The protocol:
(§3) 25K Vero or A549 cells grown in 48-well plates and supplied with DMEM (no serum) were treated with a dose of peptides or micelle-peptides (5 μM peptide/well) for 30 min. previous to infection with RSV. Infection was carried out at a 0.1 MOI and allowed in the cell culture for 1 h. After removal of viral supernatant, the cells were treated with a second dose of peptides or peptide-loaded micelles containing 5 μM peptide/well in DMEM (5% FBS, 1% P/S). Infection was followed for a period of 48 h through microscopy and quantified through flow cytometry.
The effect of inhibitory peptides (HR2-A, HR2-B, HR2-C, HR2-D, HR2-E, HR2-S, HR2-D0, HR2-D1, HR2-D2, HR2-D3, HR2-D4) on RG RSV infection given by prophylactic method was visualized by inverted fluorescence microscopy (Olympus IX371) and quantitated by flow cytometry. […] Plaques were visualized and quantified (3-5 days pi). […] Uptake was quantified by flow cytometry (BD FacsAria analyzer/sorter). […] Final cell pellet was suspended in 400 μl of 1×PBS and analyzed for green and/or red content.
The hydrodynamic diameter of micelles with surface-conjugated peptides (MPs) was measured and compared to MPs with peptides also in the core (FMPs) (FIG. 6A). […] Subsequently experiments involved using Cy5 labeled peptides conjugated to the micelles and quantifying its activity against RG RSV infection by flow cytometry. […]
On the technique in general: Flow cytometry measures light scatter and fluorescence of single cells or particles in a stream.

For series [5], the system named is RG RSV. The series can be described thus: Prophylactic model of RSV infection in HEp2 cells, flow cytometry of GFP, RG RSV. It counts as cell-based, respiratory syncytial virus. Particulars: two doses 5 μM peptide, 0.2 MOI, vs untreated positive control. The protocol: as §2, with “Cells were placed in a live-cell environmental chamber at 37° C. with 5% CO2 and imaged using spinning-disk confocal microscopy (Olympus IX81 confocal microscope).” left out, “analyzer/sorter).” for “analyzer/sorter). Samples for flow cytometry were prepared using 50K cells/well seeded in 24-well plates and grown in DMEM plus 10% FBS and incubated with peptides at a concentration of 5 μM peptide/well for 30 min at 37° C.”
(§4) The anti-RSV activity of peptides HR2-S, HR2-E, HR2-A, HR2-B, HR2-C, and HR2-D was tested in vitro following a prophylactic model of RSV infection in HEp2 cells described in the experimental section above. RG and RA2 RSV strains were used to quantify infection by flow and RA2 and A2 strains were used to quantitate the viral titers by immunochemistry. […]

The subject of series [6] is RG RSV. The series can be described thus: HR2-D peptide series, prophylactic model of infection in Vero cells, GFP by flow cytometry. It counts as cell-based, respiratory syncytial virus. The following applies: for GFP from positive control: prophylactic. As to the method: as §3
Infection experiments with the HR2-D series were carried out in Vero cells following a prophylactic model of infection using RG RSV (MOI=0.1) strain. At 48 h after infection, the cells were analyzed for GFP (positive RSV infection) by flow cytometry. […] Compared to HR2-D0, HR2-D1 is about 30% lower. For the activity of the inhibitor peptide HR2-D (˜20% GFP from positive control), as shown by the loss of activity by 1.5 fold for HR2-D2 vs. 2.5 fold for peptide HR2-D1. Moreover, the presence of the one free cysteine which is not forming a disulfide bond might result in destabilizing the whole structure. HR2-D1 and HR2-D2 have a free cysteine residue at position 9 and 32, respectively while HR2-S, HR2-D3 and HR2-D4 contain only one pair of cysteines.

Series [7] has as its system rgRSV. Description: In vivo model of rgRSV infection and intranasal prophylactic treatment. The following applies: intranasal 50 μL of 125 μM 1 h before rgRSV 1×10^6 pfu, 24 h post infection, vs empty micelle control. Further details: species or system BALB/c mice. The protocol: Ten week old BALB/c mice (n=4 per group) were anesthetized and treated intranasally with the indicated HR2D peptide (125 μM in 1.2% DMSO) or packaged in filled micelles or with chitosan nanoparticles and empty micelles control. One hour post reatment, three groups of mice were inoculated with a single dose of rgRSV at 1×10^6 pfu/mouse. Mice were sacrificed at 24 hours post infection and the noses harvested, sectioned, stained with DAPI and imaged for GFP using an Olympus fluorescent microscope.
To determine if the in vitro anti-RSV activity of HR2D translated to an in vivo context, in vivo testing was performed on mice. HR2D peptide itself, HR2 peptide with filled micelles, empty micelles as control, and HR2D peptide chitosan nanocomplexes were each administered by nasal drop (50 μL of 125 μM solution in 1.2% DMSO) to ten week old BALB/c mice followed by intranasal inoculation with a single dose of rgRSV (1×10^6 pfu) one hour later. Mice were sacrificed 24 hours after infection, and the noses harvested, sectioned, stained with DAPI, and subjected to fluorescence imaging. […] Thus, we find that pretreatment of rgRSV-infected mice with intranasal HR2D peptide markedly decreases nasal infection.

Series [8] relates to RSV RA2. Description: Prophylactic model of RSV infection in HEp2 cells, flow cytometry with FITC-labeled anti-RSV staining, RA2 RSV. Particulars: two doses 5 μM peptide, 0.2 MOI. It counts as cell-based, respiratory syncytial virus. The protocol: as §2, with “Cells were placed in a live-cell environmental chamber at 37° C. with 5% CO2 and imaged using spinning-disk confocal microscopy (Olympus IX81 confocal microscope).” left out, “analyzer/sorter).” for “analyzer/sorter). Samples for flow cytometry were prepared using 50K cells/well seeded in 24-well plates and grown in DMEM plus 10% FBS and incubated with peptides at a concentration of 5 μM peptide/well for 30 min at 37° C.”
as §4

The test system of series [9] is RA2 RSV. Description: RSV titers by plaque assay in HEp-2 cells in presence of peptide, RA2 strain. It counts as cell-based, respiratory syncytial virus. Particulars: 24-96 h after infection. As to the method:
as §1, with “The culture supernatant was collected and mixed with 0.1 volumes of sterile magnesium sulfate (1M).” left out, “(1:1000 dilution) and secondary antibody against primary with HRP conjugate.” left out
The effect of inhibitory peptides (HR2-A, HR2-B, HR2-C, HR2-D, HR2-E, HR2-S, HR2-D0, HR2-D1, HR2-D2, HR2-D3, HR2-D4) on RG RSV infection given by prophylactic method was visualized by inverted fluorescence microscopy (Olympus IX371) and quantitated by flow cytometry. […] Plaques were visualized and quantified (3-5 days pi). […]

Where [10] appears, read: RG RSV MOI=0.1, 48 h after infection.

“DACISQVNECINQSLAFICKSDELLCNT (disulfide (positions not given here)) [HR2-D, ID NO.: 7, two disulfides]”: the “inhibition of A2 infection by viral titers” value in series [1] was “greater inhibitory activity”. In addition, the “decrease in A2 titers” value in series [1] (96 h pi, 0.2 MOI) was 50,000 fold. Further, the hydrodynamic diameter in [2] was 2 nm. The “control of infection under therapeutic conditions” value in series [3] is “did not control the infection significantly”. Besides, in series [4] (low MOI (0.1), prophylactic, 24 h pi), the “infection blocked compared to positive control” value was 85%. Moreover, the “neutralization (peptide release comparison with controls)” value in series [4] (virus concentration not stated at this place) amounted to 70%. The “inhibition of RG RSV infection (GFP expression)” value in [5] is given as “greatest inhibition of RG RSV infection”. Besides, in series [6] (setting [10]), the “GFP from positive control” value is on record as approximately 20%. Also, the “RSV infection (GFP-positive cells) in nose sections” value in series [7] was “significantly decreased virus infected cells in the nose”; in series [7] (listed as HR2D peptide), “marked reduction in GFP-positive nasal tissue”.

“DACISQVNECINQSLAFIRKSDELLCNT (not fully specified (bridges); cysteine pairing not given here) [HR2-D2, ID NO.: 10]”: in [6] (RG RSV MOI=0.1, 48 h), the “loss of activity relative to HR2-D” value came to 1.5 fold.

Turning to “DACISQVNEKINQSLAFICKSDELLCNT (not fully specified (bridges); cysteine pairing not given here) [HR2-D1, ID NO.: 9]”, in [6] (RG RSV MOI=0.1, 48 h), the “GFP lower compared to HR2-D0” value is “about 30%” and the “loss of activity relative to HR2-D” value came out at 2.5 fold.

Turning to “DACISQVNEKINQSLAFIRKSDELLCNT (disulfide 3-26 (inferred)) [HR2-D3, ID NO.: 11]”, the “activity less compared to HR2-S” value in series [6] (RG RSV MOI=0.1, 48 h) was found to be 3 fold.

“DASISQVNECINQSLAFICKSDELLHNT (disulfide 10-19 (inferred)) [HR2-D4, ID NO.: 12]”: in series [6] (RG RSV MOI=0.1, 48 h), the “activity less compared to HR2-S” value came to 2 fold.

Consider “DASISQVNEKINQSLAFIRKSDELLHNT (Chemically synthesized anti-RSV peptide) [HR2-D0, ID NO.: 8, control peptide with no cysteine]”, for which the “inhibitory activity against RSV infection” value in series [6] (setting [10]) was “did not show any inhibitory activity; also recorded: lack of activity”.

Regarding “FDACISQVNECINQSLAFIRKSDELLHNVNAGKST (disulfide 4-11 (inferred)) [HR2-S, ID NO.: 2, one disulfide]”, the “inhibition of A2 infection by viral titers” value in series [1] is listed as “did not block A2 infection effectively”. In [1] (24 h to 96 h pi, 0.2 MOI, 5 μM peptide), the “reduction in A2 viral titers” value is “about 0.2 fold”. In series [8], the “inhibition of RA2 RSV infection” value is listed as “most effective inhibitor”. In series [5], the “inhibition of RG RSV infection (GFP expression)” value is “less GFP expression”. Also, in series [6] (setting [10]), the “GFP from positive control” value was approximately 38%. Moreover, in series [9], the “inhibition of RA2 infection by viral titers” value is “did inhibit RA2 infection”.
